Square brackets hold non-standard residues; d marks the D form. Peptide text beside a SMILES is read from it. Dmt = Cc1cc(O)cc(C)c1C[C@H](N)C(=O)O; Orn = NCCC[C@H](N)C(=O)O
Key:
Assay type in all cases: in vivo
D2-mdx mice = experiment: Echocardiography in D2-mdx mouse model; settings: treated vs untreated D2-mdx mice; daily IP 1.0 or 5.0 mg/kg for 10-15 weeks
Experimental: Animals and Care: The DBA2 (a.k.a. D2-mdx) congenic strain of mdx mouse will be used for these studies. DBA/2J mice will be used as the wildtype control group. Animals will be obtained from appropriate sources (e.g. Jackson Labs). Animals will be housed at a density of up to five males or five females per cage under specific pathogen-free conditions in rooms with a 12-h light/12-h dark cycle at a temperature of 18-23° C. and 40-60% humidity. All experiments involving mice in this study will be performed in accordance with all applicable laws and regulations.
Echocardiography: In order to assess the cardiac function of mice in vivo, echocardiography will be performed on sedated mice. Mice will first be anesthetized (e.g. with 5% isoflurane mixed with 100% oxygen at 1.0 1/min flow) and then maintained under anesthesia (e.g. with 1.5% isoflurane/oxygen flow. Ophthalmic ointment can be placed on the eyes of the animals to prevent drying of the cornea while the mouse was anesthetized and tested. After anesthetic induction, the animals will be placed on a thermostatically controlled heated platform, where anesthesia can be maintained by delivery through a close-fitting facemask. A heating lamp can also be used to keep the heart rate and body temperature constant at physiological status during echocardiography.
During the examination, the animal’s heart rate will be monitored through the use of an electrocardiograph. The mouse’s heart rate and body temperature will be monitored continuously during the scanning. Echocardiography will be performed using an appropriate apparatus (e.g. Vevo770 ultrasound machine (VisualSonics, Toronto, Canada). The 2-D (B-mode), M-mode and Doppler images will be acquired from a modified parasternal long axis view, parasternal short axis view, suprasternal notch view and apical three-chamber view. The heart rate (BPM), fractional shortening, EF, stroke volume and cardiac output will be obtained for cardiac function assessment using measurements from the modified parasternal short axis view in the M-mode. Qualitative and quantitative measurements will be recorded using offline workstation software, and post-imaging analysis will be performed.
Study Design • 1. N=40-60 mice total assigned to following groups • a. Wildtype control - untreated, n=10-15 • b. mdx, vehicle treated, n=10-15 • c. mdx, daily IP elamipretide 1.0 mg/kg, n=10-15 • d. mdx, daily IP elamipretide 5.0 mg/kg, n=10-15 • 2. Dosing to begin at 4-6 weeks of age and continue for 10-15 weeks • a. Weekly retroorbital eye bleeds will be taken to provide serum for biomarker analysis • 3. In-life endpoints • a. Weekly body weight will be taken • b. Measurements of weekly voluntary wheel running will be determined • i. Total distance (m) • ii. Normalized distance (m/kg) • c. Echocardiogram (at least at week 18 & end of study but possibly more often, including possibly bi-monthly). The following parameters will be accessed. • i. Ejection fraction (%) • ii. Fractional shortening (%) • iii. Stroke volume (uL) • iv. Cardiac output (mL) • v. Heart rate (bpm) • 4. Endpoints post-necropsy • a. Serum analysis for creatine kinase • b. Histology of heart and inflammation and fibrosis

[1] = system: Subjects suspected of having or diagnosed as having DMD or BMD and taking corticosteroids and/or Eteplirsen, Golodirsen or Casimersen; experiment: Treatment of cardiomyopathy in human subjects with DMD or BMD taking corticosteroids and/or Eteplirsen, Golodirsen or Casimersen; settings: for signs or symptoms of cardiomyopathy associated with DMD or BMD: human subjects taking corticosteroids and/or Eteplirsen, Golodirsen or Casimersen, daily subcutaneous 0.5-5.0 mg/kg/day or weekly intravenous 0.05-1.0 mg/kg/hr. for up to 4 hours; for effect of combination with corticosteroids and/or Eteplirsen, Golodirsen or Casimersen on signs or symptoms of cardiomyopathy: human subjects, compared to peptide alone, or corticosteroids and/or Eteplirsen, Golodirsen or Casimersen alone
Experimental: Subjects suspected of having or diagnosed as having DMD or BMD and taking corticosteroids and/or Eteplirsen (Exondys 51®), Golodirsen (Vyondys 53™)or Casimersen (Amondys 45™) are separately, sequentially, or simultaneously subcutaneously administered a daily dose of H-D-Arg-2′6′-Dmt-Lys-Phe-NH2 or H-D-Arg-2′6′-Dmt-Lys-Phe-OH (e.g. with 0.5-5.0 mg/kg/day) or a weekly intravenous administration of H-D-Arg-2′6′-Dmt-Lys-Phe-NH2 or H-D-Arg-2′6′-Dmt-Lys-Phe-OH (e.g. with 0.05-1.0 mg/kg/hr. for up to 4 hours). Subjects will be regularly evaluated (e.g., weekly, bi-weekly, monthly, etc.) for the presence and/or severity of signs and symptoms of cardiomyopathy associated with DMD or BMD including, but not limited to, impaired left ventricular dynamics, e.g., reduced ejection fraction, reduced shortening fraction, reduced stroke volume, and/or reduced cardiac output, and elevated levels serum biomarkers associated with myocardial fibrosis, such as, e.g., elevated levels of carboxy terminal peptide of procollagen type I (PICP) and/or amino terminal propeptide of procollagen type III. Treatments are maintained at least until such a time as one or more signs or symptoms of cardiomyopathy associated with DMD or BMD are ameliorated or eliminated. The study may be conducted in a randomized withdrawal trial (e.g. randomized, double-blind, placebo-controlled withdrawal trial) to assess the impact of the peptide on the subjects followed by the impact of its withdrawal relative to a control group still receiving the peptide.

DMD KO rabbits = experiment: Body weight and survival in DMD KO rabbit model; settings: treated DMD KO rabbits vs untreated control group of DMD KO rabbits; 0.5 to 5 mg/kg once daily i.p., approximately 3-5 months
Excerpt: Rabbits: The DMD KO rabbits used in this study will be obtained from the Laboratory Animal Center of Jilin University or prepared as described in Sui et al., Disease Models & Mechanisms 11 (2018). […] New Zealand rabbits (WT) will be used as controls.
Body Weight & Survival Curve: The body weight of age- and sex-matched WT and DMD KO rabbits will be measured biweekly. All data will be expressed as the mean±s.e.m., and a minimum of three individual animals of each genotype will be used in all experiments.
Study Design: At approximately 3-4 weeks of age, rabbits will be administered peptide (or a mixture of peptides) dissolved in sterile saline in dose(s) ranging from 0.5 to 5 mg/kg, once daily via intraperitoneal (i.p.) injection. The control group will be given placebo (sterile saline). Rabbits will be treated daily with peptide (or a mixture of peptides) or saline vehicle control, with treatment lasting approximately 3-5 months. For example, the peptide used could be a peptide of Formula A-1 (i.e. H-D-Arg-2′6′-Dmt-Lys-Phe-NH2). Echocardiograms will be collected monthly until animals are approximately 4-6 months of age or end of life. At the time of death, tissues will be harvested and variables described above will be collected.

[2] = system: Subjects suspected of having or diagnosed as having DMD or BMD; experiment: Treatment of cardiomyopathy in human subjects diagnosed with muscular dystrophy; settings: daily subcutaneous 0.5-5.0 mg/kg/day or weekly intravenous 0.05-1.0 mg/kg/hr. for up to 4 hours
Experimental: Subjects suspected of having or diagnosed as having DMD or BMD receive daily subcutaneous administration of H-D-Arg-2′6′-Dmt-Lys-Phe-NH2 or H-D-Arg-2′6′-Dmt-Lys-Phe-OH (e.g. with 0.5-5.0 mg/kg/day). Alternatively, subjects suspected of having or diagnosed as having DMD or BMD receive weekly intravenous administration of H-D-Arg-2′6′-Dmt-Lys-Phe-NH2 or H-D-Arg-2′6′-Dmt-Lys-Phe-OH (e.g. with 0.05-1.0 mg/kg/hr. for up to 4 hours). In some cases, the subjects could be co-administered a drug known to increase or correct the production of dystrophin in the subject, such as a phosphorodiamidate morpholino oligomer (PMO) such as Eteplirsen (Exondys 51®), Golodirsen (Vyondys 53™) or Casimersen (Amondys 45™) or a PPMO. Subjects will be regularly evaluated (e.g., weekly, bi-weekly, monthly, etc.) for the presence and/or severity of signs and symptoms of cardiomyopathy associated with DMD or BMD including, but not limited to, impaired left ventricular dynamics, e.g., reduced ejection fraction, reduced shortening fraction, reduced stroke volume, and/or reduced cardiac output, and elevated levels serum biomarkers associated with myocardial fibrosis, such as, e.g., elevated levels of carboxy terminal peptide of procollagen type I (PICP) and/or amino terminal propeptide of procollagen type III. […]

| Structure (SMILES) | cardiac output (D2-mdx mice) | fractional shortening (FS) (D2-mdx mice) | signs or symptoms of cardiomyopathy associated with DMD or BMD [1] | effect of combination with corticosteroids and/or Eteplirsen, Golodirsen or Casimersen on signs or symptoms of cardiomyopathy [1] | lifespan (DMD KO rabbits) | signs or symptoms of cardiomyopathy associated with DMD or BMD [2] |
| --- | --- | --- | --- | --- | --- | --- |
| Cc1cc(O)cc(C)c1C[C@H](NC(=O)[C@H](N)CCCNC(=N)N)C(=O)N[C@@H](CCCCN)C(=O)N[C@@H](Cc1ccccc1)C(N)=O [Compound A-1, H-D-Arg-2′6′-Dmt-Lys-Phe-NH2] (H-[dR][Dmt]KF-NH2) | higher | higher | delayed or reduced severity or elimination | synergistic effects | statistically significant increase in lifespan | reduced severity or elimination |
| Cc1cc(O)cc(C)c1C[C@H](NC(=O)[C@H](N)CCCNC(=N)N)C(=O)N[C@@H](CCCCN)C(=O)N[C@@H](Cc1ccccc1)C(=O)O [Compound A-2, H-D-Arg-2′6′-Dmt-Lys-Phe-OH] (H-[dR][Dmt]KF-OH) | higher | higher | delayed or reduced severity or elimination | synergistic effects | statistically significant increase in lifespan | reduced severity or elimination |
| Cc1cc(O)cc(C)c1C[C@H](NC(=O)[C@H](N)CCCNC(=N)N)C(=O)N[C@@H](CCCNC(=N)N)C(=O)N[C@@H](Cc1ccccc1)C(N)=O [Compound A-3] (H-[dR][Dmt]RF-NH2) | higher | higher | – | – | statistically significant increase in lifespan | – |
| Cc1cc(O)cc(C)c1C[C@H](NC(=O)[C@H](N)CCCNC(=N)N)C(=O)N[C@@H](CCCNC(=N)N)C(=O)N[C@@H](Cc1ccccc1)C(=O)O [Compound A-4] (H-[dR][Dmt]RF-OH) | higher | higher | – | – | statistically significant increase in lifespan | – |
| Cc1cc(O)cc(C)c1C[C@H](NC(=O)[C@H](N)CCCNC(=N)N)C(=O)N[C@@H](CCCN)C(=O)N[C@@H](Cc1ccccc1)C(N)=O [Compound A-5] (H-[dR][Dmt][Orn]F-NH2) | higher | higher | – | – | statistically significant increase in lifespan | – |
| Cc1cc(O)cc(C)c1C[C@H](NC(=O)[C@H](N)CCCNC(=N)N)C(=O)N[C@@H](CCCN)C(=O)N[C@@H](Cc1ccccc1)C(=O)O [Compound A-6] (H-[dR][Dmt][Orn]F-OH) | higher | higher | – | – | statistically significant increase in lifespan | – |
| N=C(N)NCCC[C@@H](N)C(=O)N[C@@H](Cc1ccc(O)cc1)C(=O)N[C@@H](CCCCN)C(=O)N[C@@H](Cc1ccccc1)C(N)=O [Compound A-7] (H-[dR]YKF-NH2) | higher | higher | – | – | statistically significant increase in lifespan | – |
| N=C(N)NCCC[C@@H](N)C(=O)N[C@@H](Cc1ccc(O)cc1)C(=O)N[C@@H](CCCCN)C(=O)N[C@@H](Cc1ccccc1)C(=O)O [Compound A-8] (H-[dR]YKF-OH) | higher | higher | – | – | statistically significant increase in lifespan | – |

From patent US20230256047A1, “METHODS AND COMPOSITIONS FOR THE TREATMENT OF MUSCULAR DYSTROPHY” (STEALTH BIOTHERAPEUTICS INC., priority 2020, published 2023)
